Consider seven compounds from ChEMBL document CHEMBL1201862, “PubChem BioAssay data set” (2004).

Some test systems named below: ACHN; BT-549; HCT-15; HOP-92; Hs-578T; K562; M14; MDA-MB-435; NCI-H226; OVCAR-4; RXF 393; SF-268; SK-MEL-5; SN12C; SNB-19; SR; SW-620; U-251; UACC-257; A549.
Common to all, as to test: growth of human tumour cells (NCI), 48 h

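Exposure lasted 48 hours, with cells grown in 96-well plates and compounds tested at five concentrations. At the GI50, growth is halved.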 Active and inactive are the calls of the source. Cut-off read from the data, not from the text of the source: active = GI50 up to about 1.1 µM and inactive = higher.

As to `O=C(Nc1cc(Cl)c(I)c(Cl)c1)C(F)(F)F`, the GI50 with ACHN was 30.3 µM (inactive); in the test with BT-549, 25.9 µM (inactive); with HCT-15, 18 µM; in the test on HOP-92, 20.3 µM (inactive); with Hs-578T, 22.4 µM (inactive); in the test on K562, 28.2 µM (inactive). For the same compound, the GI50 was 23.2 µM (inactive) in the test on M14; 30.3 µM (inactive) with MDA-MB-435; 23.1 µM (inactive) with NCI-H226; 31.1 µM (inactive) in the test with OVCAR-4; 16.7 µM (inactive) in the test with RXF 393; 27.1 µM (inactive) in the test with SF-268. The GI50 was 18.7 µM (inactive) in the test on SK-MEL-5; 35.5 µM (inactive) with SN12C; 35.9 µM (inactive) with SNB-19; 30.8 µM (inactive) with SR; 45.3 µM (inactive) with SW-620; 40.4 µM (inactive) in the test with U-251. Also, in the test with UACC-257, the GI50 was 45.6 µM (inactive).
Regarding `CCCC(=O)NC(Nc1ccc(S(=O)(=O)Nc2ccc(OC)nn2)cc1)(C(F)(F)F)C(F)(F)F`, the GI50 with A549 was > 100 µM (inactive); with ACHN it was > 100 µM (inactive); with BT-549, > 100 µM (inactive); with HCT-15 it was above 100 µM; with HOP-92, > 100 µM (inactive); in the test on Hs-578T it was > 100 µM (inactive). The GI50 with K562, with M14, with MDA-MB-435, in the test with NCI-H226, in the test on OVCAR-4 and in the test on RXF 393 was > 100 µM (inactive) in each case. Besides, the GI50 with SF-268, in the test with SK-MEL-5, with SN12C, in the test on SNB-19, in the test with SR and in the test on SW-620 was > 100 µM (inactive) each time. Besides, the GI50 in the test on U-251 and with UACC-257 was > 100 µM (inactive) throughout.
As to `COC(=O)Cc1ccc2c(c1)Sc1ccc(CC(=O)OC)cc1N2C`, the GI50 is 24 µM (inactive) in the test with A549; 38 µM (inactive) with ACHN; 16.1 µM (inactive) in the test on BT-549; 14.7 µM in the test with HCT-15; 24.6 µM (inactive) in the test on HOP-92; 39.3 µM (inactive) in the test with Hs-578T. Besides, the GI50 is 6.75 µM (inactive) with K562; 30.3 µM (inactive) with M14; 6.4 µM (inactive) with MDA-MB-435; 49.5 µM (inactive) in the test on NCI-H226; 28.3 µM (inactive) with OVCAR-4; 25.1 µM (inactive) in the test with RXF 393. Also, the GI50 in the test with SF-268 is 38.3 µM (inactive); in the test on SK-MEL-5 it was 12.3 µM (inactive); in the test on SN12C it was 33.7 µM (inactive); with SNB-19 it was 44 µM (inactive); in the test on SR, 14.4 µM (inactive); in the test on SW-620, 39.1 µM (inactive). The GI50 in the test with U-251 is 19.4 µM (inactive); in the test with UACC-257, 30.5 µM (inactive).
In the case of `COC(=O)[C@H](Cc1c[nH]c2ccccc12)NC(=O)c1ccc(CNC(=O)/C=C/c2cccc(Oc3ccccc3)c2)cc1`, the GI50 is 92.9 µM (inactive) in the test with A549; > 100 µM (inactive) with ACHN; 39.9 µM (inactive) with BT-549; 81.7 µM in the test with HCT-15; 20.2 µM (inactive) in the test with HOP-92; 34.7 µM (inactive) in the test with Hs-578T. Also, the GI50 in the test on K562 is 63.5 µM (inactive); in the test with M14, 23.2 µM (inactive); in the test with MDA-MB-435 it was 5.7 µM (inactive); in the test on NCI-H226, > 100 µM (inactive); in the test on OVCAR-4, 19.5 µM (inactive); in the test on RXF 393 it was 7.73 µM (inactive). The GI50 with SF-268 was > 100 µM (inactive); in the test with SK-MEL-5, 30.3 µM (inactive); in the test on SN12C, > 100 µM (inactive); in the test with SNB-19 it was 91.6 µM (inactive); in the test with SR, 22.4 µM (inactive); in the test with SW-620 it was > 100 µM (inactive). For the same compound, the values for the GI50 in the test on U-251 and in the test with UACC-257 were > 100 µM (inactive) and 15.7 µM (inactive), respectively.
Turning to `O=C1Nc2cc([N+](=O)[O-])ccc2C(=O)N2CCC[C@@H]12`, the GI50 with A549 was > 100 µM (inactive); in the test with ACHN, > 100 µM (inactive); in the test on BT-549, > 100 µM (inactive); with HCT-15 it was above 100 µM; in the test on HOP-92, > 100 µM (inactive); in the test with Hs-578T it was > 100 µM (inactive). Besides, the GI50 in the test with K562, with M14, in the test with MDA-MB-435, in the test on NCI-H226, in the test with OVCAR-4 and in the test with RXF 393 was > 100 µM (inactive) each time. The GI50 with SF-268, in the test on SK-MEL-5, with SN12C, with SNB-19, in the test on SR and in the test on SW-620 was > 100 µM (inactive) throughout. In addition, the GI50 in the test with U-251 and in the test with UACC-257 was > 100 µM (inactive) throughout.
Consider `N=c1c2c(=S)n(-c3ccccc3)c(=S)n(-c3ccccc3)c2nc(SCCN2CCOCC2)n1-c1ccccc1`, for which the GI50 in the test with A549 is 1.78 µM (inactive); in the test on ACHN it was 1.87 µM (inactive); in the test with BT-549, 1.98 µM (inactive); in the test with HCT-15 it was 1.91 µM; in the test with HOP-92, 1.82 µM (inactive); with Hs-578T, 2.67 µM (inactive). For the same compound, the GI50 in the test on K562 was 1.47 µM (inactive); in the test with M14 it was 1.93 µM (inactive); in the test on MDA-MB-435 it was 1.82 µM (inactive); in the test with NCI-H226 it was 7.13 µM (inactive); with OVCAR-4, 1.76 µM (inactive); in the test with RXF 393, 1.79 µM (inactive). The GI50 in the test with SF-268 was 1.79 µM (inactive); in the test on SK-MEL-5, 2.73 µM (inactive); with SN12C it was 2.06 µM (inactive); with SNB-19, 10.4 µM (inactive); in the test on SR it was 0.475 µM (active); in the test on SW-620, 1.91 µM (inactive). Further, the GI50 in the test on U-251 is 1.99 µM (inactive); with UACC-257, 2.11 µM (inactive).
With `COc1ccc(C(C)NNC(=O)c2cc[n+]([BH2-]C#N)cc2)cc1F` (centres undefined), the GI50 in the test with A549 was > 100 µM (inactive); in the test with ACHN, > 100 µM (inactive); in the test with BT-549 it was > 100 µM (inactive); in the test with HCT-15 it was above 100 µM; with HOP-92, > 100 µM (inactive); in the test on Hs-578T it was > 100 µM (inactive). For the same compound, the GI50 in the test on K562, with M14, in the test on MDA-MB-435, in the test with NCI-H226, in the test with OVCAR-4 and in the test on RXF 393 was > 100 µM (inactive) in each case. For the same compound, the GI50 in the test with SF-268, in the test on SK-MEL-5, in the test with SN12C, in the test with SNB-19, in the test with SR and in the test on SW-620 was > 100 µM (inactive) in each case. Also, the GI50 in the test with U-251 and in the test on UACC-257 was > 100 µM (inactive) each time.
